Measured values from ChEMBL document CHEMBL4177539, “Discovery of N-((3R,4R)-4-Fluoro-1-(6-((3-methoxy-1-methyl-1H-pyrazol-4-yl)amino)-9-methyl-9H-purin-2-yl)pyrrolidine-3-yl)acrylamide (PF-06747775) through Structure-Based Drug Design: A High Affinity Irreversible Inhibitor Targeting Oncogenic EGFR Mutants with Selectivity over Wild-Type EGFR” (J Med Chem, 2017).

Legend:
physchem [1] = settings: octanol/water
Homo sapiens = organism: Homo sapiens; assay: Selectivity index, ratio of IC50 for wild-type EGFR autophosphorylation in human A549 cells to IC50 for EGFR T790M/L858R double mutant autophosphorylation in human H1975 cells; type: cell-based
in vitro [2] = settings: dog, MDCK
in vitro [3] = settings: human, liver microsomes
physchem [4] = settings: phosphate buffer with glutathione, pH 7.4

Structure (SMILES)	logD (physchem [1])	further results
C=CC(=O)N[C@@H]1CCN(c2nc(Nc3cnn(C)c3)c3ncn(C(C)C)c3n2)C1	2.7	
C=CC(=O)N[C@H]1CCN(c2nc(Nc3ccc(N4CCN(C)CC4)cc3)c3ncn(C(C)C)c3n2)C1	2.2	Ratio IC50 (Homo sapiens): 15
C=CC(=O)N[C@H]1CCN(c2nc(Nc3cnn(C)c3)c3ncn(C(C)C)c3n2)C1	2.3	Ratio IC50 (Homo sapiens): 13
C=CC(=O)N[C@@H]1CCN(c2nc(Nc3ccc(N4CCN(C)CC4)cc3)c3ncn(C(C)C)c3n2)C1	2	
C=CC(=O)Nc1cc2c(Nc3ccc(F)c(Cl)c3)ncnc2cc1OCCCN1CCOCC1 [CANERTINIB]		half-life at 2 h, 1 µM (physchem [4]): 21 min

The next lines start with results.

logD (physchem [1])	Structure (SMILES)	further results
1.8	C=CC(=O)N[C@@H]1CN(c2nc(Nc3cn(C)nc3OC)c3nc[nH]c3n2)C[C@H]1F	Papp (in vitro [2]): 2 ×10⁻⁶ cm/s; microsomal CLint at […], 1 µM (in vitro [3]): 8 µL/min/mg
3.5	C=CC(=O)N[C@@H]1CN(c2nc(Nc3cn(C)nc3CC)c3ncn(C(C)C)c3n2)C[C@H]1F	microsomal CLint at […], 1 µM (in vitro [3]): 81 µL/min/mg
